Peptide text beside a SMILES is read from it.
Molecular target: Pseudomonas aeruginosa Elastase (LasB) (Pseudomonas aeruginosa, UniProt P14756)
Conditions: fluorescamine assay; 125 μL 1 mM peptide + 125 μL buffer with 15 μg LasB; 25 mM Na2B4O7 pH 8.0, 10 mM CaCl2; 37 °C, 4 h; fluorescence ex 355/em 460 nm; normalised to P5 = 100%; n=3
Description: P5’s sequence should be formed following LasB‐mediated hydrolysis of the −GLAE− sequence, present in all the peptides reported.
One‐way ANOVA, followed by Tukey's test (CI=95%,) was used to test for significance. Statistical significance was determined ‘n/s’=not significant, *** p<0.001.
Stock solutions of peptide (1 mM) or succinyl casein (0.5 mg/mL) were prepared in 25 mM Na2B4O7 buffer at pH 8.0 with 10 mM CaCl2 and 10% v/v DMSO. 125 μL of these substrate solutions were added to a 96‐well black‐walled microplate and mixed with 125 μL of the same buffer without DMSO, containing 15 μg of enzyme (LasB or HLE). Solutions of enzymes and substrates alone were prepared as controls. Every sample was prepared in triplicate. The microplate was incubated at 37 °C for 4 hours under orbital shaking. After 4 hours, 50 μL of 0.1 M EDTA in water at pH 8.0 were added to each well to quench all enzymatic activity. Then, each sample was mixed in a 1 : 1 volume ratio with a 1 mM solution of fluorescamine19 in methanol. […] After this time, fluorescence was measured exciting at 355 nm and reading the emission at 460±10 nm. […]
fluorescence is related to the elastase-mediated hydrolysis of the peptides. […]
of the elastases and the fluorescence observed is represented by black bars . […]
peptides,[4] was incubated in the absence of elastase and the fluorescence obtained was associated

Sequence of Pseudomonas aeruginosa Elastase (LasB) (P14756 198-498): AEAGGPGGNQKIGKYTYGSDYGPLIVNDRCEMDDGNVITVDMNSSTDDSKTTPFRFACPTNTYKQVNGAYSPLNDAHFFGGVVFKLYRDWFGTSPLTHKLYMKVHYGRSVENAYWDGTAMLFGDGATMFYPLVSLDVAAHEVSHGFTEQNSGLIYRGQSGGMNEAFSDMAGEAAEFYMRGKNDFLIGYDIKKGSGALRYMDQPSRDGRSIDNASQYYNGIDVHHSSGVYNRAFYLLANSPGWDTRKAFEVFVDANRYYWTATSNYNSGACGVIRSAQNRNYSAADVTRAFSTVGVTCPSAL

SMILES | susceptibility to LasB hydrolysis (relative amine content)
CC(=O)N[C@@H](CS)C(=O)N[C@@H](CCC(=O)O)C(=O)N[C@@H](CCC(=O)O)C(=O)N[C@@H](CCC(=O)O)C(=O)NCC(=O)N[C@@H](CC(C)C)C(=O)N[C@@H](C)C(=O)N[C@@H](CCC(=O)O)C(=O)N[C@@H](CCC(=O)O)C(=O)N[C@@H](CCC(=O)O)C(=O)N[C@@H](CS)C(=O)O [P3SH] (Ac-CEEEGLAEEEC-OH) | highest susceptibility
CC(=O)N[C@@H](CS)C(=O)N[C@@H](CCC(=O)O)C(=O)N[C@@H](CCC(=O)O)C(=O)NCC(=O)N[C@@H](CC(C)C)C(=O)N[C@@H](C)C(=O)N[C@@H](CCC(=O)O)C(=O)N[C@@H](CCC(=O)O)C(=O)N[C@@H](CS)C(=O)O [P2SH] (Ac-CEEGLAEEC-OH) | least active

— article PMC6146907, “Structural Determinants of the Stability of Enzyme‐Responsive Polyion Complex Nanoparticles Targeting Pseudomonas aeruginosa’s Elastase” (Chemnanomat, 2018)
